Experimental data reported in patent publication US10499640B2, “Herbicidal compounds” (SYNGENTA PARTICIPATIONS AG, priority 2014, dated 2019).

Columns and labels:
Assay type in all cases: in vivo
[1] = system: Abutilon theophrasti (ABUTH); assay: Pre-emergence herbicidal activity, glasshouse pot test; design: key: 5=total damage to plant; 0=no damage to plant; details: Rate 1000 g/Ha; sprayed one day after sowing; evaluated after 13 days; scale 0-5
Experimental: (§1) Seeds of a variety of test species were sown in standard soil in pots. After cultivation for one day (pre-emergence) under controlled conditions in a glasshouse (at 24/16° C., day/night; 14 hours light; 65% humidity), the plants were sprayed with an aqueous spray solution derived from the formulation of the technical active ingredient in acetone/water (50:50) solution containing 0.5% Tween 20 (polyoxyethelyene sorbitan monolaurate, CAS RN 9005-64-5). The test plants were then grown in a glasshouse under controlled conditions (at 24/16° C., day/night; 14 hours light; 65% humidity) and watered twice daily. After 13 days, the test was evaluated (5=total damage to plant; 0=no damage to plant).

[2] = system: Alopecurus myosuroides (ALOMY); assay: as above; design: key: 5=total damage to plant; 0=no damage to plant; details: Rate 1000 g/Ha; sprayed one day after sowing; evaluated after 13 days; scale 0-5
Experimental: as §1

[3] = system: Amaranthus retroflexus (AMARE); assay: as above; design: key: 5=total damage to plant; 0=no damage to plant; details: Rate 1000 g/Ha; sprayed one day after sowing; evaluated after 13 days; scale 0-5
Experimental: as §1

[4] = system: Echinochloa crus-galli (ECHCG); assay: as above; design: key: 5=total damage to plant; 0=no damage to plant; details: Rate 1000 g/Ha; sprayed one day after sowing; evaluated after 13 days; scale 0-5
Experimental: as §1

Setaria faberi (SETFA) [5] = assay: as above; design: key: 5=total damage to plant; 0=no damage to plant; details: Rate 1000 g/Ha; sprayed one day after sowing; evaluated after 13 days; scale 0-5
Experimental: as §1

Zea mays (ZEAMX) [6] = assay: as above; details: Rate 1000 g/Ha; sprayed one day after sowing; evaluated after 13 days; scale 0-5
Experimental: as §1

[7] = system: Abutilon theophrasti (ABUTH); assay: Post-emergence herbicidal activity, glasshouse pot test; design: key: 5=total damage to plant; 0=no damage to plant; details: Rate 1000 g/Ha; sprayed after 8 days cultivation; evaluated after 13 days; scale 0-5
Experimental: (§2) Seeds of a variety of test species were sown in standard soil in pots. After 8 days cultivation (post-emergence) under controlled conditions in a glasshouse (at 24/16° C., day/night; 14 hours light; 65% humidity), the plants were sprayed with an aqueous spray solution derived from the formulation of the technical active ingredient in acetone/water (50:50) solution containing 0.5% Tween 20 (polyoxyethelyene sorbitan monolaurate, CAS RN 9005-64-5). The test plants were then grown in a glasshouse under controlled conditions (at 24/16° C., day/night; 14 hours light; 65% humidity) and watered twice daily. After 13 days, the test was evaluated (5=total damage to plant; 0=no damage to plant).

[8] = system: Alopecurus myosuroides (ALOMY); assay: as above; design: key: 5=total damage to plant; 0=no damage to plant; details: Rate 1000 g/Ha; sprayed after 8 days cultivation; evaluated after 13 days; scale 0-5
Experimental: as §2

[9] = system: Amaranthus retroflexus (AMARE); assay: as above; design: key: 5=total damage to plant; 0=no damage to plant; details: Rate 1000 g/Ha; sprayed after 8 days cultivation; evaluated after 13 days; scale 0-5
Experimental: as §2

[10] = system: Echinochloa crus-galli (ECHCG); assay: as above; design: key: 5=total damage to plant; 0=no damage to plant; details: Rate 1000 g/Ha; sprayed after 8 days cultivation; evaluated after 13 days; scale 0-5
Experimental: as §2

Setaria faberi (SETFA) [11] = assay: as above; design: key: 5=total damage to plant; 0=no damage to plant; details: Rate 1000 g/Ha; sprayed after 8 days cultivation; evaluated after 13 days; scale 0-5
Experimental: as §2

Zea mays (ZEAMX) [12] = assay: as above; design: key: 5=total damage to plant; 0=no damage to plant; details: Rate 1000 g/Ha; sprayed after 8 days cultivation; evaluated after 13 days; scale 0-5
Experimental: as §2

Structure (SMILES) | ABUTH damage score, application pre-emergence [1] | ALOMY damage score, application pre-emergence [2] | AMARE damage score, application pre-emergence [3] | ECHCG damage score, application pre-emergence [4] | SETFA damage score, application pre-emergence (Setaria faberi (SETFA) [5]) | ZEAMX damage score, application pre-emergence (Zea mays (ZEAMX) [6]) | ABUTH damage score, application post-emergence [7] | ALOMY damage score, application post-emergence [8] | AMARE damage score, application post-emergence [9] | ECHCG damage score, application post-emergence [10] | SETFA damage score, application post-emergence (Setaria faberi (SETFA) [11]) | ZEAMX damage score, application post-emergence (Zea mays (ZEAMX) [12])
CC1NC(=O)N(c2cc(C(C)(C)C#N)on2)C1O (centres unmarked) [Compound A7] | 5 | 4 | 5 | 4 | 4 | 2 | 5 | 4 | 5 | 4 | 4 | 3
CON1C(=O)N(c2cc(C(C)(C)F)on2)C(O)C1C (centres unmarked) [Compound A1, 1-[5-(1-fluoro-1-methyl-ethyl)isoxazol-3-yl]-5-hydroxy-3-methoxy-4-methyl-imidazolidin-2-one] | 5 | 4 | 5 | 4 | 4 | 2 | 5 | 5 | 5 | 5 | 5 | 5
CC1C(O)N(c2cc(C(C)(C)C#N)on2)C(=O)N1C (centres unmarked) [Compound A5] | 5 | 4 | 5 | 5 | 5 | 3 | 5 | 5 | 5 | 5 | 5 | 5
CN1CC(O)N(c2cc(C(C)(C)C#N)on2)C1=O (centres unmarked) [Compound A4] | 5 | 4 | 5 | 5 | 5 | 4 | 5 | 5 | 5 | 5 | 5 | 5
CN1CC(O)N(c2cc(C(C)(C)F)on2)C1=O (centres unmarked) [Compound A3] | 5 | 4 | 5 | 5 | 4 | 2 | 5 | 5 | 5 | 5 | 5 | 5
CC1C(O)N(c2cc(C(C)(C)F)on2)C(=O)N1C (centres unmarked) [Compound A2, 1-[5-(1-fluoro-1-methyl-ethyl)isoxazol-3-yl]-5-hydroxy-3,4-dimethyl-imidazolidin-2-one] | 5 | 4 | 5 | 4 | 4 | 2 | 5 | 5 | 5 | 5 | 5 | 5
CC(C)(C)c1cc(N2C(=O)N3CCCCC3C2O)no1 (centres unmarked) [Compound A26] | 5 | 4 | 5 | 4 | 4 | 3 | 5 | 5 | 5 | 5 | 5 | 5
CC1C(O)N(c2cc(C(C)(C)F)no2)C(=O)N1C (centres unmarked) [Compound A17] | 5 |  | 5 | 5 | 5 | 2 | 5 |  | 5 | 5 | 5 | 4
CC(C)(C#N)c1cc(N2C(=O)NCC2O)no1 (centres unmarked) [Compound A8] | 5 | 0 | 5 | 1 | 1 | 1 | 5 | 2 | 4 | 3 | 3 | 1
CON1C(=O)N(c2cc(C(C)(C)F)no2)C(O)C1C (centres unmarked) [Compound A18] | 5 |  | 5 | 5 | 5 | 2 | 5 |  | 5 | 5 | 5 | 4
